Test results reported in patent US9457062B2, “Chaperonin 10-induced immunomodulation” (CBIO LIMITED, priority 2005, dated 2016).

Experiments:
[1] = biological target: T1, TLR4 (Homo sapiens, UniProt O00206); experiment: FRET with TLR4 on MonoMac 6 cells; format: binding
T1 construct: endogenous in cells; host or cells: freshly isolated human monocytes; human monocyte-derived DC
Protocol: (§1) Cell labeling for FRET. MonoMac 6 cells (a human monocytic cell line) were labeled with 100 μl of a mixture of donor conjugated antibody (Cy3) and acceptor conjugated antibody (Cy5). For labelling of Cpn10, an anti-Cpn10 rabbit polyclonal antibody was used. […] The cells were fixed in order to prevent potential re-organisation of the proteins during the course of the experiment. Confocal imaging. Cells were imaged on a Carl Zeiss, Inc. LSM510 confocal microscope (with an Axiovert 200 fluorescent microscope) using a 1.4 NA 63× Zeiss objective. The images were analysed using LSM 2.5 image analysis software (Carl Zeiss, Inc.). Cy3 and Cy5 were detected using the appropriate filter sets. Using typical exposure times for image acquisition (less than 5 s), no fluorescence was observed from a Cy3-labelled specimen using the Cy5 filters, nor was Cy5 fluorescence detected using the Cy3 filter sets. FRET measurements. […] In the present study, FRET was measured using a method as previously described (Kenworthy and […] (1998) Journal of Cell Biology 142: 69-84; Kenworthy and […] (1998) in Gelb, M. H. (Ed.) Methods in molecular Biology. Humana Press Inc, Totowa, N.J. pp 37-49). Briefly, samples were labeled with donor and acceptor conjugated antibodies, and energy transfer was detected as an increase in donor fluorescence (dequenching) after complete photobleaching of the acceptor molecule. […]

[2] = test system: Hsp90; experiment: FRET with Hsp90 on MonoMac 6 cells; format: binding, human
Protocol: as §1

[3] = biological target: T2, CD14 (Homo sapiens, UniProt P08571); experiment: FRET with CD14 on MonoMac 6 cells; format: binding
T2 construct: MonoMac 6 cells (a human monocytic cell line); endogenous in cells; host or cells: MonoMac 6
T2 sequence (P08571 20-345): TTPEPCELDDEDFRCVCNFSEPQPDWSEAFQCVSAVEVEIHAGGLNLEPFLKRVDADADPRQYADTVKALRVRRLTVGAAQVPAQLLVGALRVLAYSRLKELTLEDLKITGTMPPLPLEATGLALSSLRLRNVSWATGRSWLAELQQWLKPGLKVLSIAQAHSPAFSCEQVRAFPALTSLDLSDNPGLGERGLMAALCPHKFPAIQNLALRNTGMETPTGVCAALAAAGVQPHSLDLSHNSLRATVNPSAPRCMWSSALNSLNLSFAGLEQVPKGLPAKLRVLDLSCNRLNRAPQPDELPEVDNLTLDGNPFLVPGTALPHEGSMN
Protocol: as §1

[4] = test system: GM1; experiment: FRET with GM1 (lipid rafts) on MonoMac 6 cells; format: binding, human; details: donor GM1
Protocol: Cell labeling for FRET. MonoMac 6 cells (a human monocytic cell line) were labeled with 100 μl of a mixture of donor conjugated antibody (Cy3) and acceptor conjugated antibody (Cy5). For labelling of Cpn10, an anti-Cpn10 rabbit polyclonal antibody was used. The cells were rinsed twice in PBS/0.02% BSA, prior to fixation with 4% formaldehyde for 15 min. The cells were fixed in order to prevent potential re-organisation of the proteins during the course of the experiment. Confocal imaging. Cells were imaged on a Carl Zeiss, Inc. LSM510 confocal microscope (with an Axiovert 200 fluorescent microscope) using a 1.4 NA 63× Zeiss objective. The images were analysed using LSM 2.5 image analysis software (Carl Zeiss, Inc.). Cy3 and Cy5 were detected using the appropriate filter sets. Using typical exposure times for image acquisition (less than 5 s), no fluorescence was observed from a Cy3-labelled specimen using the Cy5 filters, nor was Cy5 fluorescence detected using the Cy3 filter sets. FRET measurements. FRET is a non-invasive imaging technique used to determine molecular proximity. […]
In the present study, FRET was measured using a method as previously described (Kenworthy and Edidin (1998) Journal of Cell Biology 142: 69-84; Kenworthy and Edidin (1998) in Gelb, M. H. (Ed.) Methods in molecular Biology. Humana Press Inc, Totowa, N.J. pp 37-49). […]

[5] = biological target: T3, TLR3 (Mus musculus, UniProt Q99MB1); experiment: IFNβ ELISA of supernatants of RAW264.7 cells stimulated with polyI:C; format: cell-based
T3 construct: Experiments were conducted in the murine macrophage cell line RAW264.7; endogenous in cells; host or cells: RAW264.7 / RAW264-pNifty2-LUC
Protocol: Briefly, RAW264.7 cells were seeded at 2×10^5 cells/well in 24 well plates and cultured overnight (37° C., 5% CO2). Recombinant human Cpn10 (at concentrations between 10 μg/ml and 200 μg/ml) or buffer was added to cells in duplicate for 2 hours followed by the addition of polyI:C (tlrl-pic, InvivoGen, San Diego, Calif.) to a final concentration of 100 μg/ml. After 24 hours, supernatants were collected and analysed for IFNβ levels using a specific ELISA according to manufacturer's instructions (Cat No. 42400-1, R&D Systems Inc, Minneapolis, Minn.).

[6] = biological target: T4, CXCR4 (Homo sapiens, UniProt P61073); experiment: FRET with CXCR4 on MonoMac 6 cells; format: binding
T4 construct: MonoMac 6 cells (a human monocytic cell line); endogenous in cells; host or cells: MonoMac 6
Protocol: as §1

[7] = test system: Hsp70; experiment: FRET with Hsp70 on MonoMac 6 cells; format: binding, human
Protocol: as §1

[8] = test system: Cpn10 promoter; experiment: Cpn10 promoter luciferase reporter (pCAT/LUC-CPN) in RAW264.7 cells; format: cell-based, mouse; details: for up-regulation of the Cpn10 promoter: optimal agonist concentrations (FIG. 18H): IFNγ 1 ng/ml, IL-1β 1 ng/ml, TNF-α 100 ng/ml
From the text: Reagents. Recombinant human Cpn10 was produced to GMP specifications by BresaGen Limited (Adelaide, Aus) essentially as described previously (Johnson, B. 2005. J. Biol Chem 280:4037-4047). […] For FACS analysis, a cysteine residue was engineered onto the C-terminus of Cpn10 and labeled with AlexFluor647 (Invitrogen) according to manufacturer's instructions. […] TLR ligands and cytokines included: E. coli LPS (strain 055:B5, Sigma), E. coli ultra-pure LPS (0111:B4 Sigma), S. aureus LTA, B. subtilis LTA, S. aureus PGN, B. subtilis PGN, zymosan cell wall from S. cerevisae, poly(I:C), imiquimod R837, CpG ODN 1826 and ODN2216, GpC ODN1826 control, (all from Invivogen, San Diego, Calif.), recombinant mouse IFNγ, (Chemicon), IL-1β (PeproTech), and recombinant human TNF-α (Invivogen). Antibodies. Rabbit polyclonal antibodies were raised against Cpn10 and affinity purified at CBio. Cytometric Bead Array (CBA) Flex Sets recognizing phosphorylated signal proteins (both human and mouse) including ERK1/2 (T202/Y204), JNK1/2 (T183/Y185), p38/MAPKinase (T180/Y182), CD14, and FcBlock (CD16/CD32) were from BD. Transfection, Cell Stimulation and Promoter analysis. The pCAT/LUC-CPN promoter construct was provided by M. Ryan and N. Hoogenraad (La Trobe University, Melbourne). RAW264.7 cells were transiently transfected using GeneJuice (Novagen). After 24 h cells were harvested and cell viability assessed by trypan blue dye exclusion. Cells were seeded into 24-well plates and heat shocked (43° C. for 15 min (mild), 30 min (moderate), or 60 min (severe)) followed by recovery at 37° C. or stimulated after 18 h. Cells were washed, harvested in Cell Culture Lysis Reagent (CCLR, Promega) and firefly luciferase signal measured using the Luciferase Assay System (Promega) and the Wallac Victor 2 Multilabel Counter (Perkin-Elmer). Real-time PCR. RAW264.7 cells were seeded at 2.5×10^5/ml in sterile 24 well plates and adhered for 16-20 hrs prior to stimulation. […] Cells were assessed for viability, pooled per condition (n=4), pelleted by centrifugation and resuspended in CCLR.

[9] = test system: RAW264.7 cells; experiment: ELISA of endogenous Cpn10 in RAW264.7 culture supernatants and cell lysates; format: cell-based, mouse
From the text: Reagents. Recombinant human Cpn10 was produced to GMP specifications by BresaGen Limited (Adelaide, Aus) essentially as described previously (Johnson, B. 2005. J. Biol Chem 280:4037-4047). […] For FACS analysis, a cysteine residue was engineered onto the C-terminus of Cpn10 and labeled with AlexFluor647 (Invitrogen) according to manufacturer's instructions. […] TLR ligands and cytokines included: E. coli LPS (strain 055:B5, Sigma), E. coli ultra-pure LPS (0111:B4 Sigma), S. aureus LTA, B. subtilis LTA, S. aureus PGN, B. subtilis PGN, zymosan cell wall from S. cerevisae, poly(I:C), imiquimod R837, CpG ODN 1826 and ODN2216, GpC ODN1826 control, (all from Invivogen, San Diego, Calif.), recombinant mouse IFNγ, (Chemicon), IL-1β (PeproTech), and recombinant human TNF-α (Invivogen). Antibodies. Rabbit polyclonal antibodies were raised against Cpn10 and affinity purified at CBio. […] After 24 h cells were harvested and cell viability assessed by trypan blue dye exclusion. […] Cells were washed, harvested in Cell Culture Lysis Reagent (CCLR, Promega) and firefly luciferase signal measured using the Luciferase Assay System (Promega) and the Wallac Victor 2 Multilabel Counter (Perkin-Elmer). […] Cells were assessed for viability, pooled per condition (n=4), pelleted by centrifugation and resuspended in CCLR.

[10] = test system: Cpn10 mRNA; experiment: Cpn10 mRNA real-time PCR in RAW264.7 cells; format: cell-based, mouse; details: maximal induction at 18 h, near baseline by 24 h
[11] = test system: HeLa cells
Protocol: (§2) For the data shown in FIG. 34, PolyI:C (supplied by Invivogen) was dissolved in sterile saline at 5 mg/ml stored frozen at −20° C. Vials were thawed and diluted into medium. For buffer controls, the same volume and sterile saline was added to cell culture wells. […] RAW264.7 cells were grown as adherent cultures in flasks and scraped (i.e. not trypisinised) prior to seeding into 96-well plates. HeLa cells were trypsinised in the standard way prior to seeding. Cells were seeded in duplicate in a 96-well plate (5×10^3 for RAW264.7 cells and 10^4 for HeLa cells in 50 μl medium per well). After 4 h, Cpn10 was added (in 50 μl diluted in medium) and after a further 30 mins polyI:C was added (in 50 μl diluted in medium). The cells were then incubated overnight in the 96-well plates and then RRV was added (MOI=1 for RAW264.7 cells, and MOI=10 for HeLa cells in 50 μl). After 3 days, the cells were fixed, stained with crystal violet, washed, dried and dye extracted with 100% methanol and read at A595 nm as described (Antalis et al, J Exp Med 1998, 187(11):1799). […] Titrations were established to determine the dose required for induction of anti-viral resistance for RAW264.7 cells and HeLa cells.

[12] = test system: RAW264.7 cells
Protocol: as §2

T1 sequence (O00206 24-839): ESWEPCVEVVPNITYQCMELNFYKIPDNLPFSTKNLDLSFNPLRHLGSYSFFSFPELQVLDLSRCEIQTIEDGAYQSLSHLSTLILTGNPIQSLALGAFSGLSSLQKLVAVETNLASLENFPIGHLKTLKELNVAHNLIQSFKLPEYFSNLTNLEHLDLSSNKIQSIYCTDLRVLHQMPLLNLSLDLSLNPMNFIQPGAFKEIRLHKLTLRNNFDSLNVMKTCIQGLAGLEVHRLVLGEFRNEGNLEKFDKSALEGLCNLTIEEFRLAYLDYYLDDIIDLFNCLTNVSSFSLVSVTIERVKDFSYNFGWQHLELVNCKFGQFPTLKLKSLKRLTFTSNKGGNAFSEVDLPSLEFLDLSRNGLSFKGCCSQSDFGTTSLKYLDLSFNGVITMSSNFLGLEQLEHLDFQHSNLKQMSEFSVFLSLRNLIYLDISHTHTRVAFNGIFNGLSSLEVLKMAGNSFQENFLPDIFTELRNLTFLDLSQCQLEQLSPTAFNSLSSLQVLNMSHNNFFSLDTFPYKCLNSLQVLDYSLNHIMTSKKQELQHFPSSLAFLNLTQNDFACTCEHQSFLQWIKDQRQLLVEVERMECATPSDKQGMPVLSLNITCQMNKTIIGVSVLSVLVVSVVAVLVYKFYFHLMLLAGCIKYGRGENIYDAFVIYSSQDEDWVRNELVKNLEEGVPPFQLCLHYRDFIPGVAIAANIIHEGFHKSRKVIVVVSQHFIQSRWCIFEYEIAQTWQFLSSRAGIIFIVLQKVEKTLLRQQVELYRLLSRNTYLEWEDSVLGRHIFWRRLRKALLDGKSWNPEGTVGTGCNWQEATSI
T4 sequence (P61073 whole entry): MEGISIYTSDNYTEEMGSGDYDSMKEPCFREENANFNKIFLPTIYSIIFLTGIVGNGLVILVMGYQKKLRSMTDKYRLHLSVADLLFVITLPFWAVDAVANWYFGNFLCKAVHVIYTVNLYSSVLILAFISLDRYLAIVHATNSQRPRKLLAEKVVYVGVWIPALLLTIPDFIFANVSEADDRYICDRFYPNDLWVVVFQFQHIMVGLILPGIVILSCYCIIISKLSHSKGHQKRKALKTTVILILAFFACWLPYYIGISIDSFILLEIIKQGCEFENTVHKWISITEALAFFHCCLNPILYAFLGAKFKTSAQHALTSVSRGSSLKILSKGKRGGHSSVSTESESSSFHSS
T3 sequence (Q99MB1 26-905): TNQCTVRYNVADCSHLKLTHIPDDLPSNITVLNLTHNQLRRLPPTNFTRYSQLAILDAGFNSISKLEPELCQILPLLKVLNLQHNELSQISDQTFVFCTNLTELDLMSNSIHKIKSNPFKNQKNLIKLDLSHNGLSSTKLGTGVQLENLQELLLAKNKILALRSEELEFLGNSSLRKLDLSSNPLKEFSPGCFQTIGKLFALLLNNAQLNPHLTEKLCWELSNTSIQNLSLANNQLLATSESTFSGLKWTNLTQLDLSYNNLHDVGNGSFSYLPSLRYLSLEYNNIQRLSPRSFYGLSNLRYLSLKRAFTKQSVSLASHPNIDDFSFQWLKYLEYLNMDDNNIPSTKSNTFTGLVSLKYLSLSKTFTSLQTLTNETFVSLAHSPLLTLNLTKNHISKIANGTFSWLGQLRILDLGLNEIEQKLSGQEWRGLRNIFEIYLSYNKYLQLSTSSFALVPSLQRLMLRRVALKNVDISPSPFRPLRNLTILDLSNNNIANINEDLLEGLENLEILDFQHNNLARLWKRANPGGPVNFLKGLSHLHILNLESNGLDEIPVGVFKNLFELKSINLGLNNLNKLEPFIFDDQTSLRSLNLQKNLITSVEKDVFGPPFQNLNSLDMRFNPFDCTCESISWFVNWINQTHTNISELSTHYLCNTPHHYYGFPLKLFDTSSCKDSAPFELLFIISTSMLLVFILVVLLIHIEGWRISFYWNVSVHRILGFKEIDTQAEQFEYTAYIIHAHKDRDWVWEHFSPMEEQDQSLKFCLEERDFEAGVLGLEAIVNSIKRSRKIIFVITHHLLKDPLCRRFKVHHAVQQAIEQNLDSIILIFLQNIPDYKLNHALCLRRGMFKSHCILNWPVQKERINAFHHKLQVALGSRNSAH

## GroES: E. coli homologue of Cpn10, routinely used as a negative control
[1]; MM6 cells stimulated with LPS
  E ± ΔE (%) energy transfer efficiency: 8 ± 1.0%
[1]; Unstimulated MM6 cells
  E ± ΔE (%) energy transfer efficiency: 7 ± 1.5%
[2]; MM6 cells stimulated with LPS
  E ± ΔE (%) energy transfer efficiency: 8 ± 2.0%
[2]; Unstimulated MM6 cells
  E ± ΔE (%) energy transfer efficiency: 7 ± 1.5%
[3]; MM6 cells stimulated with LPS
  E ± ΔE (%) energy transfer efficiency: 7 ± 0.5%
[3]; Unstimulated MM6 cells
  E ± ΔE (%) energy transfer efficiency: 8 ± 1.0%
[4]; MM6 cells stimulated with LPS
  E ± ΔE (%) energy transfer efficiency: 6 ± 1.0%
[4]; Unstimulated MM6 cells
  E ± ΔE (%) energy transfer efficiency: 7 ± 1.5%
[5]; polyI:C stimulation, 10-200 μg/ml protein
  effect on polyI:C-induced IFNβ levels in culture supernatants: did not modulate the production of IFN-β
[6]; MM6 cells stimulated with LPS
  E ± ΔE (%) energy transfer efficiency: 3 ± 1.0%
[6]; Unstimulated MM6 cells
  E ± ΔE (%) energy transfer efficiency: 4 ± 2.0%
[7]; MM6 cells stimulated with LPS
  E ± ΔE (%) energy transfer efficiency: 7 ± 1.5%
[7]; Unstimulated MM6 cells
  E ± ΔE (%) energy transfer efficiency: 6 ± 1.0%

## IL-1β: IL-1β (PeproTech), non-TLR agonist
[8]
  up-regulation of the Cpn10 promoter: did not induce substantial up-regulation

## TNF-α
[8]
  up-regulation of the Cpn10 promoter: did not induce substantial up-regulation

## lipoteichoic acid [LTA]
[9]; LTA treated vs control cells
  intracellular Cpn10 levels in cell lysates: little change in intracellular Cpn10 levels
[9]; after 30 h, 100 μg/ml LTA
  increase in soluble (extracellular) Cpn10 in culture supernatants over unstimulated control cells: 3 fold
[8]; 24 hour stimulation, constant at 30 hours
  induction of the Cpn10 promoter: 2.7 fold
[10]
  induction of Cpn10 mRNA: concentration-dependent induction of Cpn10 mRNA

## polyinosinic-polysytidilic acid [polyI:C]
[11]
  toxicity: No such toxicity was observed
[5]; polyI:C at 100 μg/ml, absence of Cpn10
  IFNβ released into culture supernatants: 292 pg/mL
[12]
  concentrations showing clear signs of toxicity: 5000 to 10000 ng/mL
